According to patent publication US20240245682A1, “ALPHA-V-BETA-8 INTEGRIN INHIBITORS AND USES THEREOF” (Pliant Therapeutics, Inc., priority 2022, published 2024):

Experiments:
Experiment in all cases: AlphaScreen proximity-based integrin binding assay with TGF-b1 LAP
Conditions in all cases: values given as ranges
human integrin αVβ6 = human integrin αVβ6 (Homo sapiens, UniProt P06756+P18564)
Protocol: (§1) The biochemical potency of the disclosed compounds was determined using the AlphaScreen® (Perkin Elmer, Waltham, MA) proximity-based assay as described previously (Ullman E F et al., Luminescent oxygen channeling immunoassay: Measurement of particle binding kinetics by chemiluminescence. Proc. Natl. Acad. Sci. USA, Vol. 91, pp. 5426-5430, June 1994, herein incorporated by reference in its entirety). To gauge the potency of inhibitors of binding to each of human integrins αVβ1, αVβ6, and αVβ8, inhibitor compounds were independently incubated with one of αVβ1, αVβ6, or αVβ8, together with TGF-b1 LAP and biotinylated anti-LAP antibody plus acceptor and donor beads, following the manufacture's recommendations. The donor beads were coated with streptavidin. […] All incubations occurred at room temperatures in 50 mM Tris-HCl, pH 7.5, 0.1% BSA supplemented with 1 mM each CaCl2 and MgCl2.
(§2) The order of reagent addition was as follows:
(§3) 1. αVβ1, αVβ6, or αVβ8 integrin, test inhibitor compound, LAP, biotinylated anti-LAP antibody and acceptor beads were all added together.
(§4) 2. After 2 hours, donor beads were added. After another 30 minute incubation, samples were then read.
(§5) Integrin binding was evaluated by exciting donor beads at 680 nm, and measuring the fluorescent signal produced, between 520-620 nm, using a Biotek Instruments (Winooski, VT, USA) SynergyNeo2 multimode plate reader. Compound potency was assessed by determining inhibitor concentrations required to reduce fluorescent light output by 50%. Data analysis for IC50 determinations was carried out by nonlinear four parameter logistic regression analysis using Dotmatics ELN Software (Core Informatics Inc., Branford, Ct). […] Comp #in the Table and Examples below refers to the compound of the corresponding Example number as described in the Synthetic Examples.

human integrin αVβ1 = human integrin αVβ1 (Homo sapiens, UniProt P05556+P06756)
human integrin αVβ1, sequence (P06756 31-992 limits assumed): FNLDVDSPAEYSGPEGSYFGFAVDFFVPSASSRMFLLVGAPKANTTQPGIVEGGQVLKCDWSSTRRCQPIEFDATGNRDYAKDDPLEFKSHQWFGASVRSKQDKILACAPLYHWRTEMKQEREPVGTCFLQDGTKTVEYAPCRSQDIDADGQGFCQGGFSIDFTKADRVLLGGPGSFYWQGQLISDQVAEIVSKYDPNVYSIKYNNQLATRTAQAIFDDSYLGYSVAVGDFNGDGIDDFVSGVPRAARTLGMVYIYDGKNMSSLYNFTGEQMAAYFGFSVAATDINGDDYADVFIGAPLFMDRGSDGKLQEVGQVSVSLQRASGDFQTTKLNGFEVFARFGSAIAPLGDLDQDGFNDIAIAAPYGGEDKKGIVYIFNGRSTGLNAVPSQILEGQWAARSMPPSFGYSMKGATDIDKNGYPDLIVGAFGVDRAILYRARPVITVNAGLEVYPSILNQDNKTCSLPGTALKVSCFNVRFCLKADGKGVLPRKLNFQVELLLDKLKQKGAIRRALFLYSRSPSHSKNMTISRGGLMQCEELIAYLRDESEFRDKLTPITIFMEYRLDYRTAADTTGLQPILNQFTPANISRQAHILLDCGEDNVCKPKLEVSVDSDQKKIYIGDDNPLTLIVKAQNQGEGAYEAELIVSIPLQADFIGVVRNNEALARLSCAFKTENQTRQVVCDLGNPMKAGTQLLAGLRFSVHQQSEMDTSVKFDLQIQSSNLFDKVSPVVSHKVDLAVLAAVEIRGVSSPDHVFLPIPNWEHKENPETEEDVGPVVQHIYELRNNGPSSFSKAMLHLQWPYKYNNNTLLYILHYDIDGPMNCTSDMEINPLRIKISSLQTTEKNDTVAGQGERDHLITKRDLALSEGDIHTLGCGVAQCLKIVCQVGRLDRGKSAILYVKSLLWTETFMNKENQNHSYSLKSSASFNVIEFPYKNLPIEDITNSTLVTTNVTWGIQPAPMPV
human integrin αVβ1, sequence (P05556 21-728 limits assumed): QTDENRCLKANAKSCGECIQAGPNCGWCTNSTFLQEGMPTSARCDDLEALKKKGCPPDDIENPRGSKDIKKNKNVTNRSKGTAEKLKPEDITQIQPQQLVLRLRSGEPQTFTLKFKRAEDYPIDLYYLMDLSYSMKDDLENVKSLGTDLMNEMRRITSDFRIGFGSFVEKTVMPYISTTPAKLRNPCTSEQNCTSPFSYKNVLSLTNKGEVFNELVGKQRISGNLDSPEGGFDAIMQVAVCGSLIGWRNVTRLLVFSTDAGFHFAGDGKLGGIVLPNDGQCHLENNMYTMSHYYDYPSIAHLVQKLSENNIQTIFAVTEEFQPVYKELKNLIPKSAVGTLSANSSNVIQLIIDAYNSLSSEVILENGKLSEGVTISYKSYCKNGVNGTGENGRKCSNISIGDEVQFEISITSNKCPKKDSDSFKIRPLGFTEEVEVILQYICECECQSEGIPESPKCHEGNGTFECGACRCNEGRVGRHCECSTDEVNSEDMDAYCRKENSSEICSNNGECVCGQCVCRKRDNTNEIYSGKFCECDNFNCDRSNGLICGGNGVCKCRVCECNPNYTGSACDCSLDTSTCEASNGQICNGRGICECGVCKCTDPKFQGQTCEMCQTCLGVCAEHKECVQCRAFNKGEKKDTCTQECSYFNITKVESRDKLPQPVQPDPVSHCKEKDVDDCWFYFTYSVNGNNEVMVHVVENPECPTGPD
Protocol: as §1, §2, §3, §4, §5

human integrin αVβ8 = human integrin αVβ8 (Homo sapiens, UniProt P06756+P26012)
human integrin αVβ8, sequence (P06756 31-992 limits assumed): as the sequence (P06756 31-992 limits assumed) above
human integrin αVβ8, sequence (P26012 43-684 limits assumed): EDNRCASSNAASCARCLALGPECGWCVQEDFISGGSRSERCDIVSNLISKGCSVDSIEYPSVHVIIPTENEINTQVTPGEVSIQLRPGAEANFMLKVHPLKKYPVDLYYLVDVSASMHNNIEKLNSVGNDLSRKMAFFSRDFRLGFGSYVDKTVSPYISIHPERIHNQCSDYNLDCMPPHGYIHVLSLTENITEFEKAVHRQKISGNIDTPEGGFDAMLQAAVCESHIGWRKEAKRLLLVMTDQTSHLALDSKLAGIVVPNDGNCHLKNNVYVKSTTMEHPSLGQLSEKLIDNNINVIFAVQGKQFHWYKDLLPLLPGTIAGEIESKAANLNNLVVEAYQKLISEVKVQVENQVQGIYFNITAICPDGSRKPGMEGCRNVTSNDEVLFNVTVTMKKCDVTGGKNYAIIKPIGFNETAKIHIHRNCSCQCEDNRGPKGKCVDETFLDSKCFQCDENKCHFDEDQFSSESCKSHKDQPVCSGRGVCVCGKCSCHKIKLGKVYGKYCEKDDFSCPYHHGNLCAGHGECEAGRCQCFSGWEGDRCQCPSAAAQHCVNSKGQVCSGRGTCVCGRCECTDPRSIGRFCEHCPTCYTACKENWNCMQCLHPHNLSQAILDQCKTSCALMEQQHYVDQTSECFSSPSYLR
Protocol: as §1, §2, §3, §4, §5

human integrin αVβ6, sequence (P06756 31-992 limits assumed): as the sequence (P06756 31-992 limits assumed) above
human integrin αVβ6, sequence (P18564 22-707 limits assumed): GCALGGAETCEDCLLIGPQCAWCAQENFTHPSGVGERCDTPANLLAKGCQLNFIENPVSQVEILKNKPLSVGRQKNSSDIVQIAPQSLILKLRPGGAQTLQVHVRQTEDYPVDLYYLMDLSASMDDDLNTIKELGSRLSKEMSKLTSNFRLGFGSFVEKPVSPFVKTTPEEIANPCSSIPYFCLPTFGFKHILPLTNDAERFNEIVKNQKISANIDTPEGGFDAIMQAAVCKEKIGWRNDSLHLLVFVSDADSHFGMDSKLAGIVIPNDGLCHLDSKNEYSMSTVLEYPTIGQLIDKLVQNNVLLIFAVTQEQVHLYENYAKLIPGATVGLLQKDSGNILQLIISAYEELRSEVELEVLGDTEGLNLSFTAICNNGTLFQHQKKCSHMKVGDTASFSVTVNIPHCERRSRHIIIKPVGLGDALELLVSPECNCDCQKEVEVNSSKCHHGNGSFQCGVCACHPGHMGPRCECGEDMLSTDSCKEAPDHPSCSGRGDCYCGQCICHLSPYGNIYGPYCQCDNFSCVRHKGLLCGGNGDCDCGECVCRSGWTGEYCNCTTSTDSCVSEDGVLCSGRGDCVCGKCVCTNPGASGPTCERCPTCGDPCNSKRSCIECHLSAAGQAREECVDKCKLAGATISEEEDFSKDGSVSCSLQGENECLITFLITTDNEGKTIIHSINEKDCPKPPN

IC50 (human integrin αVβ6) [nM] | IC50 (human integrin αVβ1) [nM] | IC50 (human integrin αVβ8) [nM] | SMILES
≥ 500 | < 50 | < 50 | N#Cc1cccnc1C1(C(=O)N[C@@H](CCOCCCCc2ccc3c(n2)NCCC3)C(=O)O)CC1 [Compound 32, N-(1-(3-cyanopyridin-2-yl)cyclopropane-1-carbonyl)-O-(4-(5,6,7,8-tetrahydro-1,8-naphthyridin-2-yl)butyl)-L-homoserine]
≥ 500 | < 50 | < 50 | COc1ncc(F)cc1C1(C(=O)N[C@@H](CCOCCCCc2ccc3c(n2)NCCC3)C(=O)O)CC1 [Compound 33, N-(1-(5-fluoro-2-methoxypyridin-3-yl)cyclopropane-1-carbonyl)-O-(4-(5,6,7,8-tetrahydro-1,8-naphthyridin-2-yl)butyl)-L-homoserine]
≥ 500 | < 50 | < 50 | COc1cncc(Cl)c1C1(C(=O)N[C@@H](CCOCCCCc2ccc3c(n2)NCCC3)C(=O)O)CC1 [Compound 34, N-(1-(3-chloro-5-methoxypyridin-4-yl)cyclopropane-1-carbonyl)-O-(4-(5,6,7,8-tetrahydro-1,8-naphthyridin-2-yl)butyl)-L-homoserine]
≥ 500 | 50 to 150 | 50 to 150 | COc1ncccc1C1(C(=O)N[C@@H](CCOCCCCc2ccc3c(n2)NCCC3)C(=O)O)CC1 [Compound 35, N-(1-(2-methoxypyridin-3-yl)cyclopropane-1-carbonyl)-O-(4-(5,6,7,8-tetrahydro-1,8-naphthyridin-2-yl)butyl)-L-homoserine]
≥ 500 | < 50 | < 50 | Cc1cnc(C2(C(=O)N[C@@H](CCOCCCCc3ccc4c(n3)NCCC4)C(=O)O)CC2)c(Cl)c1 [Compound 36, N-(1-(3-chloro-5-methylpyridin-2-yl)cyclopropane-1-carbonyl)-O-(4-(5,6,7,8-tetrahydro-1,8-naphthyridin-2-yl)butyl)-L-homoserine]
250 to 500 | < 50 | < 50 | N#Cc1cccc(F)c1C1(C(=O)N[C@@H](CCOCCCCc2ccc3c(n2)NCCC3)C(=O)O)CC1 [Compound 37, N-(1-(2-cyano-6-fluorophenyl)cyclopropane-1-carbonyl)-O-(4-(5,6,7,8-tetrahydro-1,8-naphthyridin-2-yl)butyl)-L-homoserine]
≥ 500 | < 50 | < 50 | O=C(O)[C@H](CCOCCCCc1ccc2c(n1)NCCC2)NC(=O)C1(c2ncccc2OC(F)F)CC1 [Compound 38, N-(1-(3-(difluoromethoxy)pyridin-2-yl)cyclopropane-1-carbonyl)-O-(4-(5,6,7,8-tetrahydro-1,8-naphthyridin-2-yl)butyl)-L-homoserine]
≥ 500 | < 50 | < 50 | O=C(O)[C@H](CCOCCCCc1ccc2c(n1)NCCC2)NC(=O)C1(c2ncccc2C(F)F)CC1 [Compound 40, N-(1-(3-(difluoromethyl)pyridin-2-yl)cyclopropane-1-carbonyl)-O-(4-(5,6,7,8-tetrahydro-1,8-naphthyridin-2-yl)butyl)-L-homoserine]
≥ 500 | < 50 | 50 to 150 | Cc1ncnc(C)c1C1(C(=O)N[C@@H](CCOCCCCc2ccc3c(n2)NCCC3)C(=O)O)CC1 [Compound 41, N-(1-(4,6-dimethylpyrimidin-5-yl)cyclopropane-1-carbonyl)-O-(4-(5,6,7,8-tetrahydro-1,8-naphthyridin-2-yl)butyl)-L-homoserine]
≥ 500 | < 50 | < 50 | Cc1nccnc1C1(C(=O)N[C@@H](CCOCCCCc2ccc3c(n2)NCCC3)C(=O)O)CC1 [Compound 42, N-(1-(3-methylpyrazin-2-yl)cyclopropane-1-carbonyl)-O-(4-(5,6,7,8-tetrahydro-1,8-naphthyridin-2-yl)butyl)-L-homoserine]
≥ 500 | < 50 | < 50 | N#Cc1cc(F)ccc1C1(C(=O)N[C@@H](CCOCCCCc2ccc3c(n2)NCCC3)C(=O)O)CC1 [Compound 43, N-(1-(2-cyano-4-fluorophenyl)cyclopropane-1-carbonyl)-O-(4-(5,6,7,8-tetrahydro-1,8-naphthyridin-2-yl)butyl)-L-homoserine]
≥ 500 | < 50 | 50 to 150 | COc1nccc(Cl)c1C1(C(=O)N[C@@H](CCOCCCCc2ccc3c(n2)NCCC3)C(=O)O)CC1 [Compound 44, N-(1-(4-chloro-2-methoxypyridin-3-yl)cyclopropane-1-carbonyl)-O-(4-(5,6,7,8-tetrahydro-1,8-naphthyridin-2-yl)butyl)-L-homoserine]
≥ 500 | < 50 | 50 to 150 | N#Cc1ccccc1C1(C(=O)N[C@@H](CCOCCCCc2ccc3c(n2)NCCC3)C(=O)O)CC1 [Compound 45, N-(1-(2-cyanophenyl)cyclopropane-1-carbonyl)-O-(4-(5,6,7,8-tetrahydro-1,8-naphthyridin-2-yl)butyl)-L-homoserine]
≥ 500 | 50 to 150 | 250 to 500 | CS(=O)(=O)c1ccccc1C1(C(=O)N[C@@H](CCOCCCCc2ccc3c(n2)NCCC3)C(=O)O)CC1 [Compound 46, N-(1-(2-(methylsulfonyl)phenyl)cyclopropane-1-carbonyl)-O-(4-(5,6,7,8-tetrahydro-1,8-naphthyridin-2-yl)butyl)-L-homoserine]
250 to 500 | < 50 | < 50 | Cc1cncc(F)c1C1(C(=O)N[C@@H](CCOCCCCc2ccc3c(n2)NCCC3)C(=O)O)CC1 [Compound 47, N-(1-(3-fluoro-5-methylpyridin-4-yl)cyclopropane-1-carbonyl)-O-(4-(5,6,7,8-tetrahydro-1,8-naphthyridin-2-yl)butyl)-L-homoserine]
≥ 500 | < 50 | < 50 | O=C(O)[C@H](CCOCCCCc1ccc2c(n1)NCCC2)NC(=O)C1(c2cncnc2C(F)(F)F)CC1 [Compound 48, O-(4-(5,6,7,8-tetrahydro-1,8-naphthyridin-2-yl)butyl)-N-(1-(4-(trifluoromethyl)pyrimidin-5-yl)cyclopropane-1-carbonyl)-L-homoserine]
≥ 500 | < 50 | < 50 | O=C(O)[C@H](CCOCCCCc1ccc2c(n1)NCCC2)NC(=O)C1(c2ncncc2Cl)CC1 [Compound 49, N-(1-(5-chloropyrimidin-4-yl)cyclopropane-1-carbonyl)-O-(4-(5,6,7,8-tetrahydro-1,8-naphthyridin-2-yl)butyl)-L-homoserine]
≥ 500 | < 50 | 50 to 150 | COc1nccnc1C1(C(=O)N[C@@H](CCOCCCCc2ccc3c(n2)NCCC3)C(=O)O)CC1 [Compound 50, N-(1-(3-methoxypyrazin-2-yl)cyclopropane-1-carbonyl)-O-(4-(5,6,7,8-tetrahydro-1,8-naphthyridin-2-yl)butyl)-L-homoserine]
≥ 500 | < 50 | < 50 | Cn1ncc(Cl)c1C1(C(=O)N[C@@H](CCOCCCCc2ccc3c(n2)NCCC3)C(=O)O)CC1 [Compound 51, N-(1-(4-chloro-1-methyl-1H-pyrazol-5-yl)cyclopropane-1-carbonyl)-O-(4-(5,6,7,8-tetrahydro-1,8-naphthyridin-2-yl)butyl)-L-homoserine]
≥ 500 | < 50 | < 50 | O=C(O)[C@H](CCOCCCCc1ccc2c(n1)NCCC2)NC(=O)C1(c2ncccc2CF)CC1 [Compound 52, N-(1-(3-(fluoromethyl)pyridin-2-yl)cyclopropane-1-carbonyl)-O-(4-(5,6,7,8-tetrahydro-1,8-naphthyridin-2-yl)butyl)-L-homoserine]
≥ 500 | 50 to 150 | 50 to 150 | COCc1cccnc1C1(C(=O)N[C@@H](CCOCCCCc2ccc3c(n2)NCCC3)C(=O)O)CC1 [Compound 53, N-(1-(3-(methoxymethyl)pyridin-2-yl)cyclopropane-1-carbonyl)-O-(4-(5,6,7,8-tetrahydro-1,8-naphthyridin-2-yl)butyl)-L-homoserine]
≥ 500 | < 50 | 50 to 150 | Cn1nccc1C1(C(=O)N[C@@H](CCOCCCCc2ccc3c(n2)NCCC3)C(=O)O)CC1 [Compound 54, N-(1-(1-methyl-1H-pyrazol-5-yl)cyclopropane-1-carbonyl)-O-(4-(5,6,7,8-tetrahydro-1,8-naphthyridin-2-yl)butyl)-L-homoserine]
≥ 500 | < 50 | 50 to 150 | O=C(O)[C@H](CCOCCCCc1ccc2c(n1)NCCC2)NC(=O)C1(n2ccc(Cl)n2)CC1 [Compound 55, N-(1-(3-chloro-1H-pyrazol-1-yl)cyclopropane-1-carbonyl)-O-(4-(5,6,7,8-tetrahydro-1,8-naphthyridin-2-yl)butyl)-L-homoserine]
